Laboratory results reported in ChEMBL document CHEMBL4340512, “Discovery of novel triazolo[4,3-b]pyridazin-3-yl-quinoline derivatives as PIM inhibitors” (Eur J Med Chem, 2019).

Assays:
[1] = target: Serine/threonine-protein kinase pim-3 (Homo sapiens, UniProt Q86V86); experiment: Inhibition of N-terminal 6-His tagged human recombinant PIM3 using PIM tide (ARKRRRHPSGPPTA) as substrate incubated for 1 hr by fluorescence based assay
[2] = target: T1, Serine/threonine-protein kinase pim-1 (Homo sapiens, UniProt P11309); experiment: Inhibition of PIM1 in human NCI-H1299 cells assessed as reduction in BAD phosphorylation at Ser-112 residue incubated for 4 hrs by ELISA; format: cell-based
[3] = target: T1, Serine/threonine-protein kinase pim-1; experiment: Inhibition of His tagged human recombinant PIM1 using PIM tide (ARKRRRHPSGPPTA) as substrate incubated for 1 hr by fluorescence based assay
[4] = target: Serine/threonine-protein kinase pim-2 (Homo sapiens, UniProt Q9P1W9); experiment: Inhibition of His tagged human recombinant PIM2 using PIM tide (ARKRRRHPSGPPTA) as substrate incubated for 1 hr by fluorescence based assay

Row | IC50 [1] [nM] | EC50 ([2]; nci-h1299) | IC50 [3] [nM] | IC50 [4] [nM] | EC50 ([2]; read-out: EC50) [nM] | SMILES
1 | 4080 | Not Active | 92 | > 10000 | – | CN1CCOc2c1cnn1c(-c3ccc4cccc(NC5CCC(C)(C)CC5)c4n3)nnc21
2 | 281 | – | 20 | 9940 | – | CN1CCOc2c1cnn1c(-c3ccc4cccc(NCC5CCOCC5)c4c3)nnc21
3 | 358 | – | 25 | 2470 | 322 | CN1CCOc2c1cnn1c(-c3ccc4cccc(NC5CCOCC5)c4n3)nnc21
4 | > 10000 | – | 420 | > 1000 | – | CN1CCOc2c1cnn1c(-c3ccc4cccc(NCC5CCCCC5)c4n3)nnc21
5 | – | – | > 10000 | – | – | CN1CCOc2c1cnn1c(-c3cccc(NCC4CCNCC4)c3)nnc21
6 | – | – | 425 | – | – | CN1CCOc2c1cnn1c(-c3cccc(-c4cccc(NC5CCNCC5)c4)n3)nnc21
7 | 80 | – | 38 | 2140 | 5310 | CN1CCOc2c1cnn1c(-c3ccc4cccc(N5CCC(N)CC5)c4n3)nnc21
8 | 60 | – | 12 | 4010 | 800 | CCCN1CCOc2c1cnn1c(-c3ccc4cccc(NCC5CCNCC5)c4n3)nnc21
9 | – | – | 785 | – | – | CN1CCOc2c1cnn1c(-c3cccc(-c4cccc(NCC5CCNCC5)c4)n3)nnc21
10 | 95 | – | 12 | 690 | 1380 | CN1CCOc2c1cnn1c(-c3ccc4cccc(NC5CCNCC5)c4n3)nnc21
11 | 58 | – | 13 | 1930 | 780 | CCN1CCOc2c1cnn1c(-c3ccc4cccc(NCC5CCNCC5)c4n3)nnc21
12 | – | – | 236 | > 10000 | 5960 | Cc1cc(NCC2(F)CCNCC2)c2nc(-c3nnc4c5c(cnn34)N(C)CCO5)ccc2c1
13 | 1 | Not Active | 30 | 1270 | – | CN1CCOc2c1cnn1c(-c3ccc4cc(Cl)cc(NCC5(F)CCNCC5)c4n3)nnc21
14 | – | – | 7100 | – | – | CN1CCOc2c1cnn1c(-c3cccc(C(=O)NCC4CCNCC4)n3)nnc21
15 | 6 | – | 4 | 27 | 2510 | CN1CCOc2c1cnn1c(-c3ccc4ccnc(NCC5CCNCC5)c4c3)nnc21
16 | – | – | 1100 | – | – | CN1CCOc2c1cnn1c(C(=O)Nc3ccccc3OCC3CCNCC3)nnc21
17 | 257 | – | 200 | > 10000 | 5360 | CN1CCOc2c1cnn1c(-c3ccc4cccc(N5CCNCC5)c4n3)nnc21
18 | 17 | – | 14 | 4260 | 700 | CN1CCOc2c1cnn1c(-c3ccc4cccc(NCC5CCNCC5)c4n3)nnc21
19 | 402 | – | 30 | 6210 | 325 | CN1CCOc2c1cnn1c(-c3ccc4cccc(NCC5CCOCC5)c4n3)nnc21
20 | – | – | > 10000 | – | – | CN1CCOc2c1cnn1c(C(=O)Nc3ccccc3NC3CCNCC3)nnc21
21 | 140 | – | 17 | 4690 | 2020 | c1ccc(OCCN2CCOc3c2cnn2c(-c4ccc5cccc(NCC6CCNCC6)c5n4)nnc32)cc1
22 | 58 | – | 6 | 4870 | 865 | CN1CCOc2c1cnn1c(-c3ccc4cccc(NCC5CCNCC5)c4c3)nnc21
23 | 7 | – | 10 | 858 | 465 | CN1CCOc2c1cnn1c(-c3ccc4cc(F)cc(NCC5(F)CCNCC5)c4n3)nnc21
24 | – | – | > 10000 | – | – | CN1CCOc2c1cnn1c(-c3ccnc(NC4CCNCC4)c3)nnc21
25 | – | – | > 10000 | – | – | CN1CCOc2c1cnn1c(C(=O)Nc3ccccc3NCC3CCNCC3)nnc21
26 | 131 | – | 36 | 3740 | 330 | CN1CCOc2c1cnn1c(-c3ccc4cccc(NC(=O)C5CCNCC5)c4n3)nnc21
27 | – | – | 870 | – | – | CN1CCOc2c1cnn1c(-c3cccc(C(=O)NCC4CCNCC4)c3)nnc21
